Eight compounds from patent US5968823A, “Glycine transporter-transfected avian cells and uses thereof” (Allelix Neuroscience Inc., priority 1998, dated 1999) can be followed below.

Like-named read-outs stand apart in the source and are kept apart here.

One experiment concerns the target T1, GlyT-1c (Homo sapiens, UniProt P48067).
T1 construct: expressed in transfected cells; host or cells: QT-6 quail fibroblast cells (ATCC CRL-1708), transient transfection
T1 sequence (P48067 1-706): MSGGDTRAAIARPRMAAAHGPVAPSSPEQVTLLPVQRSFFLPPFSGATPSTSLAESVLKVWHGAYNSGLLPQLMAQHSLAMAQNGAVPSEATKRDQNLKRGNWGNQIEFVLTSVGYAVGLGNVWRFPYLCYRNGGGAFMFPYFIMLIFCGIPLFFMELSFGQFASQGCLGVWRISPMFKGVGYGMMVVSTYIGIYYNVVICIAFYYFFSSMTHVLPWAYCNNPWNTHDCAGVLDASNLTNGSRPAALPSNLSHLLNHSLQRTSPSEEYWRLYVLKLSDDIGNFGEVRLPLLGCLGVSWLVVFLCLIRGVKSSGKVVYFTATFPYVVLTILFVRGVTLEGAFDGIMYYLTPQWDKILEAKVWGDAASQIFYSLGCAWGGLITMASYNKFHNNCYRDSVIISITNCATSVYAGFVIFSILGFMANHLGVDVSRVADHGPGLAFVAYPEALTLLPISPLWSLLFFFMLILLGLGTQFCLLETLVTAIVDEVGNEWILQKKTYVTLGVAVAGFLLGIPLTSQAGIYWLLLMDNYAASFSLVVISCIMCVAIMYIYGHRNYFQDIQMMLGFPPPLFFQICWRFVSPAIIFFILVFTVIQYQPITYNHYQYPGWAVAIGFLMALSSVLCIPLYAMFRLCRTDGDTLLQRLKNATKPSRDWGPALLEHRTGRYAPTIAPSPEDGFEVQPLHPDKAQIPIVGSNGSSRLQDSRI
Nature of the experiment: Inhibition of [3H]glycine uptake in QT-6 cells transiently transfected with GlyT-1c. The experiment is classed as cell-based. Conditions: for selectivity GlyT-1c relative to GlyT-2: comparison of pIC50 at GlyT-1c and GlyT-2 in transfected QT-6 cells. How it is done: (§1) This example sets forth methods and materials used for growing and transfecting QT-6 cells.
The human GlyT-1c (hGlyT-1c) clone used contains the sequence of hGlyT-1c [SEQ ID NO:3] from nucleotide position 213 to 2336 cloned into the pRc/CMV vector (Invitrogen) as a Hind III-Xba I fragment as described in Kim et al., supra. The Hind III-Xba fragment of hGlyT-1c from this clone was then subcloned into the pRc/RSV vector. Transfection experiments were performed with GlyT-1c in both the pRc/RSV and pRc/CMV expression vectors.
(§2) The following four day procedure for the tranfections was used:
(§3) On day 1, QT-6 cells were plated at a density of 1×10^6 cells in 10 ml of complete QT-6 medium in 100 mm dishes.
(§4) On day 2, the medium was aspirated and the cells were washed with 10 ml of PBS followed by 10 ml of TBS. The TBS was aspirated, then 1 ml of the DEAE/DNA mix was added to the plate. The plate was swirled in the hood every 5 minutes. After 30 minutes, 8 ml of 80 μM chloroquine in QT-6 medium was added and the culture was incubated for 2.5 hours at 37° C. and 5% CO2. The medium was then aspirated and the cells were washed two times with complete QT-6 medium, then […] complete QT-6 medium was added and the cells were returned to the incubator.
(§5) On day 3, the cells were removed with trypsin/EDTA as described above, and plated into the wells of 96-well assay plates at approximately 2×10^5 cells/well.
(§6) On day 4, glycine transport was assayed as described in Example 2.
(§7) This example illustrates a method for the measurement of glycine uptake by transfected cultured cells.
(§8) Transient GlyT-transfected cells or control ("mock") cells grown in accordance with Example 1 were washed three times with HEPES buffered saline (HBS). The mock cells were treated precisely as the GlyT-transfected cells except that the transfection procedure omitted any cDNA. The cells were incubated 10 minutes at 37° C., after which a solution was added containing 50 nM [^3 H] glycine (17.5 Ci/mmol) and either (a) no potential competitor, (b) 10 mM nonradioactive glycine or (c) a concentration of a candidate drug. […] The cells were then incubated another 20 minutes at 37° C., after which the cells were aspirated and washed three times with ice-cold HBS. The cells were harvested, scintillant was added to the cells, the cells were shaken for 30 minutes, and the radioactivity in the cells was counted using a scintillation counter. Data were compared between the cells contacted or not contacted by a candidate agent, and between cells having GlyT-1 activity versus cells having GlyT-2 activity, depending on the assay being conducted.

Another experiment has as its target T2, GlyT-2 (Rattus norvegicus, UniProt P58295).
T2 construct: expressed in transfected cells; host or cells: QT-6 quail fibroblast cells (ATCC CRL-1708), transient transfection
T2 sequence (P58295 1-799): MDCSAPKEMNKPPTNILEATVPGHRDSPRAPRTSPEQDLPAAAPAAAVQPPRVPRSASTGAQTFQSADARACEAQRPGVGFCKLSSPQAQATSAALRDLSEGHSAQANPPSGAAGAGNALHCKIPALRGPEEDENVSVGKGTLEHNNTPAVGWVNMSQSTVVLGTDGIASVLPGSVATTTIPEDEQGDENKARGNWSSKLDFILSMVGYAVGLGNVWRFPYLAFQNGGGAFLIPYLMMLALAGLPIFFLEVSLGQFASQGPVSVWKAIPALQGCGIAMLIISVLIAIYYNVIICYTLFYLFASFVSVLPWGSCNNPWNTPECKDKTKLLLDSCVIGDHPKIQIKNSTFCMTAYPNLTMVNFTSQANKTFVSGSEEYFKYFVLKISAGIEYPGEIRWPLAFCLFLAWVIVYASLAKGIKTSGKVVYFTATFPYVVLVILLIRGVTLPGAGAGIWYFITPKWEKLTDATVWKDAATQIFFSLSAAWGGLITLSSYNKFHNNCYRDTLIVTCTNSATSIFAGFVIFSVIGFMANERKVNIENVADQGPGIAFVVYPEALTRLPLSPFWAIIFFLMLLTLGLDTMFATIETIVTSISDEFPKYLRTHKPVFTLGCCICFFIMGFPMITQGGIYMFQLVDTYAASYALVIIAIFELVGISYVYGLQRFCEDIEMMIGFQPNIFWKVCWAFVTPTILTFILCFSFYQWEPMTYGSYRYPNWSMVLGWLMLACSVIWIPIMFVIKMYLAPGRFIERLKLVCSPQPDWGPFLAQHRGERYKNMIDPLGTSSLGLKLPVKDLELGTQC
Nature of the experiment: Inhibition of [3H]glycine uptake in QT-6 cells transiently transfected with GlyT-2. The experiment is classed as cell-based. As to the method: as §1, §2, §3, §4, §5, §6, §7, §8

The target of experiment [1] is glycine site on the NMDA receptor. Conditions: read-out: concentration of agonist resulting in about a 50% effect on [3H]MK-801 binding; rat cortex/hippocampus membranes; glutamate 10 μM, 2.5 nM [3H]MK-801, 1 hour room temperature; FIG. 2B.
Protocol: In particular, compounds having agonist activity in this assay enhance MK-801 binding; conversely, compounds having antagonist activity inhibit MK-801 binding.
Preparation of membranes for the binding test required application of a series of standard methods. Unless otherwise specified, tissues and homogenates were kept on ice and centrifugations were conducted at 4° C. Homogenizations were conducted with an effort to minimize resulting rise in tissue/homogenate temperature. The membrane preparation included the following steps:
Homogenize tissue in twenty volumes of 0.32 M sucrose/5 mM Tris-Acetate (pH 7.4) with 20 strokes of a glass/teflon homogenizer.
Centrifuge tissue at 1000×g, 10 minutes. Save supernatant. Resuspend pellet in small volume of buffer and homogenize again. Centrifuge the homogenized pellet and combine the supernatant with the previous supernatant.
Centrifuge the combined supernatants at 40,000×g, for 30 minutes. Discard the supernatant. […]
The assay was started by the addition of 2.5 nM [^3 H]MK-801 (23.9 Ci/mmol), which binds to the ion channel associated with NMDA receptors. […] Bound radioactivity was separated from free by filtration, using a TOMTEC harvester. Antagonist activity was indicated by decreasing radioactivity associated with the NMDA receptor with increasing concentration of the tested ligand.
The target is the same in experiment [2]. Briefly: [3H]MK-801 binding test operated to identify antagonists of the NMDA-glycine site. The conditions noted are these: rat cortex/hippocampus membranes; glutamate 10 μM, glycine 200 nM, 2.5 nM [3H]MK-801, 1 hour room temperature; FIG. 2A; read-out: concentration of antagonist resulting in about a 50% effect on [3H]MK-801 binding. How it is done:
Sterner and Calligaro, Soc. Neurosci.
The membrane preparation included the following steps:
1. Sacrifice and decapitate four rats; remove cortices and hippocampi.
3. Centrifuge tissue at 1000×g, 10 minutes. Save supernatant.
4. […] Discard the supernatant.
5. […] Stir the suspension on ice for one hour.
6. […] Leave on ice for 20 minutes.
The final volume of the assay was 200 μl.

The subject of the next experiment is NMDA receptor. Briefly: Calcium flux (45Ca++ accumulation) in primary neuronal cortical cell cultures. The class given is cell-based, rat. Conditions: L-689,560 50 μM with NMDA 500 μM; 10 minutes room temperature; FIG. 3. As to the method: A functional ion-flux assay used to measure the effect of compounds identified by the present invention relates to the ability to enhance or inhibit calcium flux through the NMDA receptor. This test is performed on suitable cell cultures that have membrane-bound NMDA receptors and glycine transporters. Such cells include neuronal cells generally, including those of the central nervous system, including brain, and cell lines derived therefrom, and any other cell that has been induced or transfected to express NMDA receptors. Calcium used in such a test is commonly the ^45 Ca isotope, although other calcium measuring techniques can be used as well, such as calcium-associated fluorescence and the like. However the calcium is monitored, calcium flux is enhanced or inhibited as a result of the discrete addition of a compound of the present invention. An advantage of this system is that it allows one to monitor the net effect on NMDA receptor function of a compound that interacts with the glycine site on the NMDA receptor and the glycine transporter.
This example illustrates a protocol for measuring calcium flux in primary neuronal cells, which is an indication of NMDA receptor activation. […]
The tissue was chopped with a scalpel and then triturated with a glass pipet that had been fire polished. […] Cells were counted in a suitable counting chamber. […]
A general note: Calcium assays in cells follow changes in intracellular calcium, usually with a dye or a luminescent sensor.

[3] abbreviates: QT-6 cells transfected with GlyT-1c, 50 nM [3H]glycine, 20 min at 37° C, read-out: Effect Via GlyT-1c, pIC50 (converted).
Where [4] appears, read: QT-6 cells transfected with GlyT-2, 50 nM [3H]glycine, 20 min at 37° C, read-out: Effect Via GlyT-2, pIC50 (converted).

`CC(C)(C)c1ccc(C(O)CCCN2CCC(C(O)(c3ccccc3)c3ccccc3)CC2)cc1` (stereo not shown) [ZB]: the figures for the IC50 against GlyT-1c and on GlyT-2 were 4.27 µM and 17 µM, respectively. Also, the “selectivity GlyT-1c relative to GlyT-2” value on GlyT-1c is on record as “selective for GlyT-1c relative to GlyT-2”.

Regarding `NCC(=O)O` [glycine], in experiment [1], the EC50 is roughly 1 µM.

Regarding `Clc1ccc(C(c2ccc(Cl)cc2)n2cc[n+](CC(OCc3ccc(Cl)cc3Cl)c3ccc(Cl)cc3Cl)c2)cc1` (stereo not shown) [ZA], the IC50 at GlyT-1c (setting [3]) was 0.912 µM; on GlyT-2 (setting [4]) it was 3.09 µM. Moreover, the “selectivity GlyT-1c relative to GlyT-2” value on GlyT-1c was “selective for GlyT-1c relative to GlyT-2”.

For `CC(Cc1ccccc1)NCCC(c1ccccc1)c1ccccc1` (stereo not shown) [ZC], on GlyT-1c, the IC50 was 6.46 µM and the “selectivity GlyT-1c relative to GlyT-2” value was “selective for GlyT-1c relative to GlyT-2”. The IC50 on GlyT-2 was 14.1 µM.

Take `O=C(Nc1ccccc1)N[C@@H]1C[C@@H](C(=O)O)Nc2cc(Cl)cc(Cl)c21` (relative stereo) [L-689,560]: the IC50 in experiment [2] was roughly 0.5 µM. Further, the “blockade of NMDA-caused accumulation of 45Ca++” value in the experiment on NMDA receptor is recorded as “blocked”.

Take `CC(NCCC(c1ccccc1)c1ccccc1)c1ccccc1` (stereo not shown) [ZE]: on GlyT-1c, the IC50 is 12.9 µM and the “selectivity GlyT-1c relative to GlyT-2” value is “selective for GlyT-1c relative to GlyT-2”. On GlyT-2, this compound gave an IC50 of 20.9 µM.

For the compound `CN1CCC(=C2c3ccccc3CCc3ccccc32)CC1` [ZF], the IC50 on GlyT-1c (setting [3]) is 21.4 µM; at GlyT-2 (setting [4]), 14.5 µM. Moreover, at GlyT-1c, the “selectivity GlyT-1c relative to GlyT-2” value is listed as “reverse selectivity”.

In the case of `CSc1ccc2c(c1)N(CCC1CCCCN1C)c1ccccc1S2` (stereo not shown) [ZD], the IC50 at GlyT-1c (setting [3]) is 9.55 µM.
